Data reported in ChEMBL document CHEMBL3632591, “Discovery and structural diversity of the hepatitis C virus NS3/4A serine protease inhibitor series leading to clinical candidate IDX320” (Bioorg Med Chem Lett, 2015).

Experiments:
[1] = test system: Hepatitis C virus; assay: Antiviral activity against HCV genotype 1b infected in human HuH7 cells after 3 days by luciferase assay; format: functional, organism-based, Hepacivirus hominis; conditions: Huh-7, 72 h
[2] = Cytotoxicity against human HuH7 cells by colorimetric proliferation assay; format: cell-based, Huh-7
[3] = Tmax in Sprague-Dawley rat at 2 mg/kg, iv administered as single dose; format: ADME, organism-based; conditions: in vivo
[4] = AUCt in Sprague-Dawley rat at 2 mg/kg, iv administered as single dose; format: ADME, organism-based; conditions: in vivo
[5] = Half life in Sprague-Dawley rat at 2 mg/kg, iv administered as single dose; format: ADME, organism-based; conditions: in vivo
[6] = Clearance in Sprague-Dawley rat at 2 mg/kg, iv administered as single dose; format: ADME, organism-based; conditions: in vivo
[7] = Cmax in Sprague-Dawley rat plasma at 10 mg/kg, po administered as single dose measured after 24 hrs; format: ADME, organism-based; parameters: dose 10 mg/kg, route oral
[8] = Tmax in Sprague-Dawley rat at 10 mg/kg, po administered as single dose; format: ADME, organism-based; conditions: in vivo
[9] = AUCt in Sprague-Dawley rat at 10 mg/kg, po administered as single dose; format: ADME, organism-based; conditions: in vivo
[10] = AUC (infinity) in Sprague-Dawley rat at 10 mg/kg, po administered as single dose; format: ADME, organism-based; parameters: dose 10 mg/kg, time infinity, route oral; conditions: in vivo
[11] = AUC (infinity) in Sprague-Dawley rat at 2 mg/kg, iv administered as single dose; format: ADME, organism-based; parameters: dose 2 mg/kg, route intravenous, time infinity; conditions: in vivo
[12] = Plasma concentration in CD-1 mouse at 2 mg/kg, iv administered as single dose measured after 24 hrs; format: ADME, organism-based
[13] = Ratio of drug level in Sprague-Dawley rat liver to plasma at 10 mg/kg, po measured at 24 hrs; format: ADME, organism-based; conditions: liver and plasma
[14] = AUC (0 to 24 hrs) in CD-1 mouse at 2 mg/kg, iv administered as single dose measured after 24 hrs; format: ADME, organism-based; parameters: time < 24 hr, dose 2 mg/kg, route intravenous; conditions: in vivo
[15] = Volume of distribution in CD-1 mouse at 2 mg/kg, iv administered as single dose measured after 24 hrs; format: ADME, organism-based; conditions: in vivo
[16] = Plasma concentration in CD-1 mouse at 2 mg/kg, po administered as single dose measured after 24 hrs; format: ADME, organism-based
[17] = AUC (0 to 24 hrs) in CD-1 mouse at 2 mg/kg, po administered as single dose; format: ADME, organism-based; parameters: dose 2 mg/kg, time < 24 hr, route oral; conditions: in vivo
[18] = Oral bioavailability in CD-1 mouse at 2 mg/kg administered as single dose; format: ADME, organism-based; conditions: in vivo
[19] = Plasma concentration in Cynomolgus monkey at 2 mg/kg, iv administered as single dose measured after 24 hrs; format: ADME, organism-based, Macaca fascicularis
[20] = AUC (infinity) in Cynomolgus monkey at 2 mg/kg, iv administered as single dose; format: ADME, organism-based, Macaca fascicularis; parameters: dose 2 mg/kg, route intravenous, time infinity; conditions: in vivo
[21] = Volume of distribution in Cynomolgus monkey at 2 mg/kg, iv administered as single dose; format: ADME, organism-based, Macaca fascicularis; conditions: in vivo
[22] = Clearance in Cynomolgus monkey at 2 mg/kg, iv administered as single dose; format: ADME, organism-based, Macaca fascicularis; conditions: in vivo
[23] = Cmax in Cynomolgus monkey at 2 mg/kg, po administered as single dose; format: ADME, organism-based, Macaca fascicularis; parameters: dose 2 mg/kg, route oral; conditions: in vivo
[24] = Plasma concentration in Cynomolgus monkey at 2 mg/kg, po administered as single dose measured after 24 hrs; format: ADME, organism-based, Macaca fascicularis
[25] = Tmax in Cynomolgus monkey at 2 mg/kg, po administered as single dose; format: ADME, organism-based, Macaca fascicularis; conditions: in vivo
[26] = Inhibition of HCV genotype 1a NS3/4A protease; parameters: species or system Hepatitis C virus subtype 1a
[27] = Apparent permeability across human Caco2 cells; format: ADME, cell-based; conditions: Caco-2
[28] = Efflux ratio of permeability in human Caco2 cells; format: ADME, cell-based; conditions: Caco-2
[29] = Cytotoxicity against mouse hepatocytes; format: cell-based, Hepatocyte
[30] = Cytotoxicity against rat hepatocytes; format: cell-based, Hepatocyte
[31] = Cytotoxicity against monkey hepatocytes; format: cell-based, Macaca mulatta, Hepatocyte; conditions: rhesus monkey
[32] = target: T1, Cytochrome P450 1A2 (Homo sapiens, UniProt P05177); assay: Inhibition of human CYP1A2; format: ADME
T1 sequence (P05177 whole entry): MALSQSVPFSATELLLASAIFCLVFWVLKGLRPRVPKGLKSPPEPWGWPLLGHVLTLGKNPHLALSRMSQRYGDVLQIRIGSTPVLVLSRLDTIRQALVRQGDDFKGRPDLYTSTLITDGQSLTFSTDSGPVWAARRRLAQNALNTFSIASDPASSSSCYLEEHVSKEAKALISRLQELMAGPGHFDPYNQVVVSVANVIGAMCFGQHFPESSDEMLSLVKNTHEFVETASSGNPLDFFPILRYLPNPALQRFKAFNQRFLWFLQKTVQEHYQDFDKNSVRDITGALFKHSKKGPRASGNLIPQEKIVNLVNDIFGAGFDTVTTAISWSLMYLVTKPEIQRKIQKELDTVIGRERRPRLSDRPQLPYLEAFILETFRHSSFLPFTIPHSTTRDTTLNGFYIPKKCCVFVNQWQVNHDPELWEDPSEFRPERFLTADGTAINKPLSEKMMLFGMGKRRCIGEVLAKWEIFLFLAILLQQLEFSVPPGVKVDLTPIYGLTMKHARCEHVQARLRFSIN

[33] = target: Cytochrome P450 2C9 (Homo sapiens, UniProt P11712); assay: Inhibition of human CYP2C9; format: ADME
[34] = target: Cytochrome P450 2D6 (Homo sapiens, UniProt P10635); assay: Inhibition of human CYP2D6; format: ADME
[35] = target: Cytochrome P450 3A4 (Homo sapiens, UniProt P08684); assay: Inhibition of human CYP3A4; format: ADME
[36] = target: T2, UDP-glucuronosyltransferase 1A1 (Homo sapiens, UniProt P22309); assay: Inhibition of human UGT1A1; format: ADME
T2 sequence (P22309 whole entry): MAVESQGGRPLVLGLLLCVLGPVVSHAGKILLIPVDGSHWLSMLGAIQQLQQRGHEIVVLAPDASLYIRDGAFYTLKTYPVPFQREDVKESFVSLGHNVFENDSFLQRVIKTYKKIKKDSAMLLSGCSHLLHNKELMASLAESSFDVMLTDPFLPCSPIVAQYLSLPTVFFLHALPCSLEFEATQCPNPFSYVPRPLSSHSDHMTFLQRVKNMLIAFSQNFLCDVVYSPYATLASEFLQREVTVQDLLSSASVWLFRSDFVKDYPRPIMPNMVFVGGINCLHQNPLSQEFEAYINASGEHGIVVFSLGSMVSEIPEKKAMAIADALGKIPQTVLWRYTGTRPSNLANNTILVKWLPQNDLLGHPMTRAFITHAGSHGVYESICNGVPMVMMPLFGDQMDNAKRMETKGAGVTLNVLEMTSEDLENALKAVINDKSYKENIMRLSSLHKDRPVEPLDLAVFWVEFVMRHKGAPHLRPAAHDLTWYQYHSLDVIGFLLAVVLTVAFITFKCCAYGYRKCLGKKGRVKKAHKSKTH

[37] = test system: Rhesus monkey; assay: Toxicity in monkey assessed as effect on cardiovascular system at 250 mg/kg, po administered as single dose; format: organism-based, Macaca mulatta; conditions: in vivo
[38] = test system: Mus musculus; assay: Toxicity in mouse assessed as effect on gastrointestinal motility at 250 mg/kg, po administered as single dose; format: organism-based; conditions: in vivo

Cytochrome P450 2D6, sequence (P10635 whole entry): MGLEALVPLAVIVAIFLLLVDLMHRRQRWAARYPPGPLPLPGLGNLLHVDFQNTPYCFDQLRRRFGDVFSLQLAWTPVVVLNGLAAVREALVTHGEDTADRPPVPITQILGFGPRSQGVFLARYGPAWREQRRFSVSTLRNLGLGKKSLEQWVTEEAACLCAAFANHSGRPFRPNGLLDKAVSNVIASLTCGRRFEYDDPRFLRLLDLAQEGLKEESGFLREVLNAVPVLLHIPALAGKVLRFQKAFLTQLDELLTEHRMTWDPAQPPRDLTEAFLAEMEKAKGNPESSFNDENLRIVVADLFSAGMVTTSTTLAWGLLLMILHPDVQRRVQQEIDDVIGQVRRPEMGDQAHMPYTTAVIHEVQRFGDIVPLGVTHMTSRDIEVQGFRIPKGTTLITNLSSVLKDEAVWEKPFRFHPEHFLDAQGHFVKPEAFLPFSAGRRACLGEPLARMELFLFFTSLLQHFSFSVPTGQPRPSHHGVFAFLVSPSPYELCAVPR
Cytochrome P450 3A4, sequence (P08684 whole entry): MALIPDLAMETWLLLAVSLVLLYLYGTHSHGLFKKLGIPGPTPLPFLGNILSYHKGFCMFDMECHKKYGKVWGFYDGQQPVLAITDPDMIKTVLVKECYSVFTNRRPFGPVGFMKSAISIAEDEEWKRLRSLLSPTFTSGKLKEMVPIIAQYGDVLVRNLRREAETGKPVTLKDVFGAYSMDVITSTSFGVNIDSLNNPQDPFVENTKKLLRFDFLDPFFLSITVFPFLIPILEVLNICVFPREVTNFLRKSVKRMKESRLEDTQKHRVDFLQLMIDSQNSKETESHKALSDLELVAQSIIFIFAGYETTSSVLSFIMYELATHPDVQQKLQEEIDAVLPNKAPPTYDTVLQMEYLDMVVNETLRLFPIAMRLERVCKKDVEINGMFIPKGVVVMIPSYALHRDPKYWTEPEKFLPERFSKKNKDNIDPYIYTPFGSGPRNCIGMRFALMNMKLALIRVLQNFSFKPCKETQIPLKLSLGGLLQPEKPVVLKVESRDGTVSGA
Cytochrome P450 2C9, sequence (P11712 whole entry): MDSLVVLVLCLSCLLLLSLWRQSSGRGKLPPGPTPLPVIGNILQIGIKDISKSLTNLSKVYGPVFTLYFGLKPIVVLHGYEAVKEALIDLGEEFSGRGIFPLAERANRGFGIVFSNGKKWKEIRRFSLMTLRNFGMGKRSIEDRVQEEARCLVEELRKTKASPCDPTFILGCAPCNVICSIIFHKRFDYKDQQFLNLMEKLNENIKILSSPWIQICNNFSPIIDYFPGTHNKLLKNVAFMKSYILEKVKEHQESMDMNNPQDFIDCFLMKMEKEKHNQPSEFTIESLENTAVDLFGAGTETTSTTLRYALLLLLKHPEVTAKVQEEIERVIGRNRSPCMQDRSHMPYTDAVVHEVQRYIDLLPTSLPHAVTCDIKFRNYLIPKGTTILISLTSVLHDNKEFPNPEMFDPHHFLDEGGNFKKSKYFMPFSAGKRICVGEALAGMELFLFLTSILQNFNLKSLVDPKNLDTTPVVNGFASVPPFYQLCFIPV

EC50 [1]: 0.0007 µM
Tmax [3]: 4.8 min
AUC(0-t) [4]: 1750 ng·h/mL
half-life [5]: 1.5 h
clearance [6]: 18.8 mL/min/kg
Cmax [7]: 934 ng/mL
Tmax [8]: 1 h
AUC(0-t) [9]: 3920 ng·h/mL
AUC(0-inf) [10]: 3970 ng·h/mL
AUC(0-inf) [11]: 1770 ng·h/mL
concentration at 24 h [12]: 7.9 ng/mL
Kp at 24 h [13]: 61.7
AUC(0-t) at 24 h [14]: 4060 ng·h/mL
Vd [15]: 4.4 L/kg
concentration at 24 h [16]: 1.5 ng/mL
AUC(0-t) at 24 h [17]: 1410 ng·h/mL
bioavailability [18]: 34.7%
concentration at 24 h [19]: 66 ng/mL
AUC(0-inf) [20]: 9580 ng·h/mL
Vd [21]: 3.5 L/kg
clearance [22]: 3.83 mL/min/kg
Cmax [23]: 1030 ng/mL
concentration at 24 h [24]: 81 ng/mL
Tmax [25]: 1 h
IC50 [26]: 0.0008 µM
Papp [27]: 1.8 ×10⁻⁶ cm/s
efflux ratio [28]: 2.7
IC50 [32]: ≥ 10 µM
IC50 [33]: ≥ 10 µM
IC50 [34]: ≥ 10 µM
IC50 [35]: ≥ 10 µM
IC50 [36]: ≥ 10 µM
SMILES: COc1ccc2c(O[C@H]3CCN4C(=O)N(C)CCCCC=C[C@@H]5C[C@@]5(C(=O)NS(=O)(=O)C5(C)CC5)NC(=O)[C@@H]4C3)cc(-c3nc(C(F)(F)F)cs3)nc2c1C
CC50 [2]: 52.8 µM
CC50 [29]: > 10 µM
CC50 [30]: > 10 µM
CC50 [31]: > 10 µM
Activity [37]: Non-toxic
Activity [38]: Non-toxic
